The values below come from patent publication US20100197765A1, “METHOD FOR PROMOTING THE EXPRESSION OF P53, AND P53 EXPRESSION PROMOTER FOR USE IN THE METHOD” (THE UNIVERSITY OF TOKUSHIMA, priority 2007, published 2010).

Format in all cases: cell-based, human
Series [1] relates to p53-deleted cells HCT116. The series is described as follows: apoptosis (TUNEL) in p53-deleted HCT116 cells with vegf siRNA and 5-FU. The note with it: p53-deleted cells HCT116, 5-FU treated, 60 hours. As to the method:
Apoptotic cells were evaluated by a TUNEL staining method using in situ Cell Death Detection kit (Roche Diagnostic). […] The counting was performed with respect to at least 300 cells in one measurement.
Various types of cells were treated with 5-FU, which is an anticancer agent inducing apoptosis in a p53-dependent manner, and the sensitivity to apoptosis was analyzed. The vegf siRNA#1 vectors expressing siRNA#1, the vegf siRNA #2 vectors expressing siRNA #2, and the control siRNA vectors described above respectively were transfected into HCT 116 (parent cells) and p53-deleted cells HCT116. Then, the cells after 18 hours from the transfection was treated for 60 hours in the presence of […] of 5-FU (+) or in the absence of 5-FU (−). The proportion (%) of apoptosis positive cells in the thus-treated cells was calculated based on “Apoptotic evaluation 2” above (means±SD, n=4).

Series [2] has as its system vegf mRNA. In words: vegf mRNA expression by Northern blotting in HepG2 cells expressing vegf siRNA. The following applies: HepG2, 18 hours after vector transfection, vs untransfected and control siRNA cells. As to the method:
(§1) Total RNAs were extracted according to a guanidine thiocyanate method. Labeled cDNAs were produced using the following antisense primers, a klenow fragment (New England BioLabs, Inc., Inc.), and [α^−32P]dCTP, with the following cDNAs being templates. Thus obtained labeled cDNAs were used as probes for the Northern blotting.
The vegf siRNA #1 vectors, the vegf siRNA #2 vectors, and the control siRNA vectors were transfected into HepG2 cells (wild-type p53). These cells were cultured for 18 hours, and the expression level of vegf mRNA was analyzed by the Northern blotting. Also, with respect to the HepG2 cells not transfected with the vectors, the analysis was performed in the same manner. At the time of analysis, gapdh mRNA in each type of the cells was monitored as a loading control (hereinafter, the same applies). The cells were cultured using DMEM medium containing 10% fetal bovine serum and 100 μg/ml (100 units/ml) of streptomycin under the condition of 37° C. and 5% CO2 (hereinafter, the same applies).

Series [3] concerns vegf IresRNA. In words: vegf IresRNA by Northern blotting in siRNA-transfected HCT116 cells. The note with it: HCT116, 18 hours after transfection, vs control cells. On the procedure:
Whether or not vegf siRNA promotes the apoptosis sensitivity of cells was examined. In the same manner as in Example A1 except that HCT116 cells (parent cells, wild-type p53) were used instead of the HepG2 cells (wild-type p53), the vegf siRNA #1 vectors expressing siRNA #1, the vegf siRNA #2 vectors expressing siRNA #2, and the control siRNA vectors described above were respectively transfected into the HCT116 cells (parent cells, wild-type p53). Then, with regard to the cells after 18 hours from the transfection, the expression levels of vegf mRNA and gapdh mRNA were analyzed by quantitative RT-PCR (means±SD, n=4) and the expression levels of vegf IresRNA and gapdh mRNA were analyzed by Northern blotting. Also, with regard to HCT116 cells not transfected with the above-described recombinant vectors, the analyses were conducted in the same manner. The quantitative RT-PCR was conducted in the same manner as in Example B1, except that a primer set for vegf mRNA was used.

Series [4] deals with p53. In words: p53 mRNA (Northern) and p53 protein (Western) expression in siRNA-expressing HepG2 cells. On the procedure: Western immunoblotting was performed according to Huez, I. et al. Mol. Endocrinol. 15 2197-2210 (2001) or Masuda, K., et al. PLoS Med. 5, e94 (2008). As a primary antibody, anti p53 antibody (“DO-1” or “FL-393”, Santa Cruz Biotechnology, Inc.), anti […] (“clone AC-15”, Sigma Chemical Co.), anti HA (“Y-11”, Santa Cruz Biotechnology Inc.), and anti L-VEGF (polyclonal anti L-VEGF antibody) mentioned in the Huez, I. et al. (2001) were used.
as §1
Each type of the vectors was transfected into HepG2 cells for 18 hours in the same manner as in the above-described item (1). Then, the cells were treated in the presence of 5-FU (30 μmol/L) (+) or the absence of 5-FU (−). With respect to the cells treated for 8 hours, the expression level of p53 mRNA was analyzed by the Northern blotting. With respect to the cells treated for 12 hours, the expression level of p53 protein was analyzed by the Western immunoblotting. Analysis of protein also was performed with respect to β-actin protein that is an endogenous control (hereinafter, the same applies). […] In FIG. 1C, the first row from the top indicates expression of p53 mRNA, the second row indicates expression of gapdh mRNA, the third row indicates expression of p53 protein, and the fourth row indicates expression of 6-actin protein. Further, in FIG. 1C, “−” indicates the treatment in the absence of 5-FU and “+” indicates the treatment in the presence of 5-FU.

For series [5], the system named is HepG2 cells. In words: apoptosis (Apoptotic evaluation 1) of siRNA-expressing HepG2 cells treated with 5-FU. The following applies: for basal apoptosis: HepG2, 0 μmol/L 5-FU; for proportion of apoptosis in response to 5-FU: HepG2, 5-FU 10, 30 μmol/L, 60 hours, concentration-dependent. As to the method: Objective cells were treated with various anticancer agents, and then incubated with trypsin/EDTA to prepare cell suspensions. The cell suspensions were centrifuged and supernatants thereof were removed. Thereafter, the cell suspensions each were immobilized and stained with a solution of formaldehyde of 3.7%, Nonidet P40 of 0.5%, and 10 μg/mL of Hoechst33258 (Invitrogen) in PBS. […] The counting was performed with respect to at least 300 cells in one measurement.
Each type of the recombinant vectors was transfected into HepG2 cells for 18 hours in the same manner as in the above-described item (1). Each type of the transfection cells was treated with an anticancer agent “5-FU” having a predetermined concentration (0, 10, 30 μmol/L) for 60 hours. Then, the apoptosis (%) of the treated cells was examined according to “Apoptosis evaluation 1”. FIG. 1B is a graph showing apoptosis (%) in each type of the cells treated with 5-FU having a predetermined concentration (means±SD, n=3).

Setting [6] is: HepG2, absence of 5-FU, vs control cells.
Setting [7] is: HepG2, presence of 5-FU (30 μmol/L), mRNA 8 hours, protein 12 hours.

With “siRNA #1: siRNA against vegf mRNA, SEQ ID NO 3/4, antisense complementary to bases 1062-1082 in SEQ ID NO. 1; expressed from pcDNA6.2-GW/EmGFP-miR vector (sense GCAUUGGACUUGCCUUGCUNN; antisense AGCAAGGCAAGGCUCCAAUGCNN)”, in series [1], the “increase in proportion of apoptosis on siRNA expression” value is on record as “little increase”. The “expression amount of vegf mRNA” value in series [2] was “decreased markedly”. Also, the “amount of the expressed vegf IresRNA” value in series [3] is listed as “decreased”. Besides, the “expression of p53 mRNA and p53 protein” value in series [4] (setting [6]) is recorded as “increased”. In series [4] (setting [7]), the “expression of p53 mRNA and p53 protein” value is “increased markedly”. Also, in series [5], the basal apoptosis entry is given as “not affected” and the “proportion of apoptosis in response to 5-FU” value is given as “increased markedly”.

In the case of “siRNA #2: siRNA against vegf mRNA, SEQ ID NO 5/6, antisense complementary to bases 1067-1087 in SEQ ID NO. 1; vector-expressed (sense GGAGCCUUGUUGCUGCUCUNN; antisense AGAGCAGCAAGGCAAGGCUCCNN)”, the “increase in proportion of apoptosis on siRNA expression” value in series [1] is recorded as “little increase”. Besides, the “expression amount of vegf mRNA” value in series [2] is recorded as “decreased markedly”. Also, in series [3], the “amount of the expressed vegf IresRNA” value is reported as “decreased markedly”. The “expression of p53 mRNA and p53 protein” value in series [4] (setting [6]) was “increased”. Besides, the “expression of p53 mRNA and p53 protein” value in series [4] (setting [7]) was “increased markedly”. Besides, in series [5], the basal apoptosis entry is listed as “not affected” and the “proportion of apoptosis in response to 5-FU” value is recorded as “increased markedly”.
